{"source": "paper PMC9852552", "about": "“Emission of floral volatiles is facilitated by cell-wall non-specific lipid transfer proteins” (Nature Communications, 2023)", "type_in_all_cases": "binding, Petunia hybrida", "key": {"recombinant PhnsLTP3": {"target": "recombinant PhnsLTP3", "experiment": "TNS displacement assay with recombinant PhnsLTP3", "details": "PhnsLTP3 1 µM, TNS 3 µM; for Kd: non-linear fitting to Michaelis-Menten equation (one binding site), means ± S.E., n = 3, read-out: dissociation constant Kd (PhnsLTP3); for Percentage fluorescence quenched: three biological replicates (c2-c4)", "protocol": "(§1) To directly test whether PhnsLTP3 can bind petunia VOCs, in vitro displacement assays were performed using the recombinant PhnsLTP3 protein and fluorescent 6-(p-toluidino)−2-naphthalenesulfonate (TNS) in the presence of petunia volatiles. […] TNS fluoresces strongly when bound to the hydrophobic regions of the protein, while it has weak fluorescence in an aqueous solution. […] Potential ligands of the protein will displace the bound TNS from the hydrophobic protein pocket into the aqueous environment leading to a decrease in the fluorescent signal, which was used to calculate the dissociation constant of the protein with ligand. […] To test whether PhnsLTP2 and PhnsLTP3 can bind other VOCs, we assayed the terpenoids: limonene, linalool, and nerolidol, as well as methyl jasmonate in TNS displacement assays. Both PhnsLTP2 and PhnsLTP3 were able to bind tested volatile compounds with Kds in the micromolar range (Supplementary Figs. 16 and 17).\nFig. 5 Binding kinetics of recombinant PhnsLTP3 with VOCs emitted by petunia flowers. TNS displacement assays were performed at fixed concentrations of PhnsLTP3 (1 µM) and TNS (3 µM) and the fluorescence was measured before and after the tested compounds were added at various concentrations. The results are expressed as percentage of fluorescence quenched with respect to the concentration of added compound. The binding curves were obtained by non-linear fitting to the Michaelis-Menten equation (solid line in the graph) and the dissociation constants Kd [µM] were obtained. […] All data are means ± S.E. (n = 3 biological replicates).\n(§2) The fluorescence-based-binding assays were performed largely according to previous publications[12],[52] with slight modifications. […] All mixtures were excited at 320 nm, and the fluorescence emission at 437 nm was recorded using a plate reader (SpectraMax iD3, Molecular Devices) at equilibrium after 5 min of incubation at 25 °C giving the background fluorescence Fmix0 and FTNS0 . The tested ligands dissolved in 2 µL DMSO were then added to the mixtures and TNS only to different final concentrations, and the fluorescence emissions were recorded at equilibrium after 5 min of incubation ( Fmixligand and FTNSligand ). To account for the change in the TNS fluorescence intensity upon adding the solvent DMSO, the background fluorescence of TNS ( FTNSsol ) as well as each PhnsLTP with TNS ( Fmixsol ) were measured. The ratios RTNS=FTNSsol/FTNS0 and Rmix=Fmixsol/Fmix0 were calculated to calibrate the fluorescence. Three measurements were taken for each concentration. The results were expressed as a percentage of fluorescence quenched Fmixligand/Rmix−FTNSligand/RTNS/Fmix0−FTNS0×100% . The corresponding dissociation constants kd were obtained by non-linear regression fitting of the binding kinetics to the Michaelis-Menten equation.\nThe binding curves of PhnsLTP3 with various VOC compounds were obtained by non-linear fitting to the one-binding-site (Eq. (1)) and two-binding-site (Eq. (2)) models. The equations assume that the ligand binds to multiple independent binding sites and that the binding to each site follows the law of mass action:1 %offluorescencequenched=Bmax×[TNS]/kd+[TNS] 2 %offluorescencequenched=Bmax1×[TNS]/kd1+[TNS]+Bmax2×[TNS]/kd2+[TNS] […]\nPhnsL TP3 (1 µ M)and TNS (3 µ M)and the fluorescence was measured before and after the tested compounds were added at various concentrations. The results are expressed as percentage of fluorescence quenched with respect to the concentration of added compound.\nThe binding curves were obtained by non-linear fitting to the Michaelis-Menten equation (solid line in the graph) and the dissociation constants Kd [µ M]were obtained. All data are means ±S.E. (n = 3 biological replicates).\nSupplementary Figure 25 | Analysis of number of binding sites of PhnsLTP3.\nTNS displacement assay was performed at fixed concentrations of PhnsLTP3 (1 µM) and TNS (3 µM) and the fluorescence was measured before and after methyl […]"}, "recombinant PhnsLTP2": {"target": "recombinant PhnsLTP2", "experiment": "TNS displacement assay with recombinant PhnsLTP2", "details": "for Kd: PhnsLTP2 1 µM, TNS 3 µM, non-linear fitting to Michaelis-Menten equation, means ± S.E., n = 3, read-out: dissociation constant Kd (PhnsLTP2); for Percentage fluorescence quenched (%): biological replicates 1-3, Supplementary Figure 17", "protocol": "as §1, §2\nSupplementary Figure 16 | Binding kinetics of recombinant PhnsLTP2 with phenylpropanoids/benzenoids by petunia flowers, terpenoids and methyl jasmonate.\nTNS displacement assays were performed at fixed concentrations of PhnsLTP2 (1 µM) and TNS (3 µM) and the fluorescence was measured before and after the tested compounds were added at various concentrations. The results are expressed as percentage of fluorescence quenched with respect to the concentration of added compound. The binding curves were obtained by non-linear fitting to the Michaelis-Menten equation (solid line in the graph) and the dissociation constants Kd [µM] were obtained. Phenylacetaldehyde, eugenol, and […]\ncorresponding binding curves. All data are means ±S.E. (n = 3 biological replicates)."}, "PhnsLTP1": {"tested_on": "PhnsLTP1", "experiment": "Activity of PhnsLTP1 with TNS (TNS fluorescence)", "protocol": "(§3) To directly test whether PhnsLTP3 can bind petunia VOCs, in vitro displacement assays were performed using the recombinant PhnsLTP3 protein and fluorescent 6-(p-toluidino)−2-naphthalenesulfonate (TNS) in the presence of petunia volatiles. […] TNS fluoresces strongly when bound to the hydrophobic regions of the protein, while it has weak fluorescence in an aqueous solution. […] Potential ligands of the protein will displace the bound TNS from the hydrophobic protein pocket into the aqueous environment leading to a decrease in the fluorescent signal, which was used to calculate the dissociation constant of the protein with ligand. […]\n(§4) The fluorescence-based-binding assays were performed largely according to previous publications[12],[52] with slight modifications. […] All mixtures were excited at 320 nm, and the fluorescence emission at 437 nm was recorded using a plate reader (SpectraMax iD3, Molecular Devices) at equilibrium after 5 min of incubation at 25 °C giving the background fluorescence Fmix0 and FTNS0 . The tested ligands dissolved in 2 µL DMSO were then added to the mixtures and TNS only to different final concentrations, and the fluorescence emissions were recorded at equilibrium after 5 min of incubation ( Fmixligand and FTNSligand ). […] The ratios RTNS=FTNSsol/FTNS0 and Rmix=Fmixsol/Fmix0 were calculated to calibrate the fluorescence. […]"}, "PhnsLTP2": {"tested_on": "PhnsLTP2", "experiment": "Activity of PhnsLTP2 with TNS (TNS fluorescence)", "details": "three biological replicates (c2-c4); listed as PhnsLTP2+TNS", "protocol": "as §3, §4"}, "PhnsLTP3": {"tested_on": "PhnsLTP3", "experiment": "Activity of PhnsLTP3 with TNS (TNS fluorescence)", "details": "for TNS fluorescence with boiled PhnsLTP3: three biological replicates", "protocol": "as §1, §2\nSupplementary Figure 15 | Protein purification and characterization of PhnsLTP1, PhnsLTP2, and PhnsLTP3 activity with TNS. a, SDS-PAGE analysis of PhnsLTP1 after affinity chromatography on Ni-NTA agarose (lane A) and subsequent cation exchange chromatography on HiTrapTM SP HP-Cytiva (lane B). 5.3 µg protein were loaded per each lane .b, SDS-PAGE analysis of 8.75 µg of purified PhnsLTP 1, PhnsLTP 2 , and PhnsLTP 3. […] P values were determined by one-way ANOVA with the Tukey’s multiple comparisons test relative to TNS background (black) and boiled PhnsLTP3 in the presence of 200 mM DTT (blue). […]"}}, "note": "“And” between values parts separate entries of the source, which are not always exact repeats. Equal entries are not always repeated."}
{"smiles": "O=Cc1ccccc1", "note": "[Benzaldehyde]", "values": [{"measurement": "Kd", "setting": "recombinant PhnsLTP3", "result": "276 ± 59.8", "unit": "µM"}, {"measurement": "Percentage fluorescence quenched", "setting": "recombinant PhnsLTP3; VOC concentration 3 µM", "result": "3.47% and 6.56% and 12.79%"}, {"measurement": "Percentage fluorescence quenched", "setting": "recombinant PhnsLTP3; VOC concentration 30 µM", "result": "19.94% and 11.97% and 16.71%"}, {"measurement": "Percentage fluorescence quenched", "setting": "recombinant PhnsLTP3; VOC concentration 300 µM", "result": "45.75% and 56.38% and 51.72%"}, {"measurement": "Percentage fluorescence quenched", "setting": "recombinant PhnsLTP3; VOC concentration 1500 µM", "result": "74.25% and 79.55% and 80.00%"}, {"measurement": "Percentage fluorescence quenched", "setting": "recombinant PhnsLTP3; VOC concentration 3000 µM", "result": "86.84% and 86.38% and 86.21%"}, {"measurement": "Kd", "setting": "recombinant PhnsLTP2", "result": "344 ± 80.7", "unit": "µM"}]}
{"smiles": "C=CC(C)(O)CCC=C(C)CCC=C(C)C", "note": "(mixture of isomers) [Nerolidol]", "values": [{"measurement": "Kd", "setting": "recombinant PhnsLTP3", "result": "2.4 ± 0.4", "unit": "µM"}, {"measurement": "Kd", "setting": "recombinant PhnsLTP2", "result": "21.4 ± 4.5", "unit": "µM"}, {"measurement": "Percentage fluorescence quenched (%)", "setting": "recombinant PhnsLTP2; VOC concentration 30 µM", "result": "79.85% and 81.10% and 78.83%"}]}
{"smiles": "CC/C=C\\CC1C(=O)CCC1CC(=O)OC", "note": "(stereo not shown) [Methyl jasmonate]", "values": [{"measurement": "Kd", "setting": "recombinant PhnsLTP3", "result": "253 ± 112", "unit": "µM"}, {"measurement": "Kd", "setting": "recombinant PhnsLTP2", "result": "184 ± 96.5", "unit": "µM"}, {"measurement": "Percentage fluorescence quenched (%)", "setting": "recombinant PhnsLTP2; VOC concentration 1500 µM", "result": "75.75% and 76.43% and 72.92%"}]}
{"smiles": "Cc1ccc(Nc2ccc3cc(S(=O)(=O)O)ccc3c2)cc1", "note": "[TNS, 6-(p-toluidino)−2-naphthalenesulfonate]", "values": [{"measurement": "TNS-binding activity of PhnsLTP1 (in words)", "setting": "PhnsLTP1", "result": "did not display TNS-binding activity"}, {"measurement": "TNS fluorescence with PhnsLTP1", "setting": "PhnsLTP1; three biological replicates (c2-c4), listed as PhnsLTP1+TNS", "result": "198735 A.U. and 195455 A.U. and 188087 A.U."}, {"measurement": "TNS fluorescence with PhnsLTP2", "setting": "PhnsLTP2", "result": "1288048 A.U. and 1292857 A.U. and 1304928 A.U."}, {"measurement": "TNS fluorescence with boiled PhnsLTP3", "setting": "PhnsLTP3; boiled PhnsLTP3 in the presence of 200 mM DTT (negative control), listed as Boiled PhnsLTP3+TNS (200 mM DTT)", "result": "508777 A.U. and 481415 A.U. and 534530 A.U."}, {"measurement": "TNS fluorescence with boiled PhnsLTP3", "setting": "PhnsLTP3; boiled PhnsLTP3 in the presence of 400 mM DTT (negative control), listed as Boiled PhnsLTP3+TNS (400 mM DTT)", "result": "531842 A.U. and 534148 A.U. and 522476 A.U."}, {"measurement": "TNS fluorescence in the presence of PhnsLTP3 (in words)", "setting": "PhnsLTP3; relative to buffer and denatured, dithiothreitol-reduced PhnsLTP3 controls", "result": "intense TNS fluorescence"}, {"measurement": "TNS fluorescence with PhnsLTP3", "setting": "PhnsLTP3; three biological replicates (c2-c4), listed as PhnsLTP3+TNS", "result": "1399068 A.U. and 1386931 A.U. and 1338392 A.U."}]}
{"smiles": "C=CC(C)(O)CCC=C(C)C", "note": "(stereo not shown) [Linalool]", "values": [{"measurement": "Kd", "setting": "recombinant PhnsLTP3", "result": "299 ± 52.4", "unit": "µM"}, {"measurement": "Kd", "setting": "recombinant PhnsLTP2", "result": "501 ± 35.8", "unit": "µM"}]}
